Results taken from US7981903B2, “2-[2-{phenylamino}-1H-pyrrolo[2,3-D]pyrimidin-4-yl)amino] benzamide derivatives as IGF-1R inhibitors for the treatment of cancer” (GlaxoSmithKline LLC, priority 2007, dated 2011).
pIC50: −log10 of the molar value.

Columns and labels:
[1] = target: T1, human IR (hIR) (Homo sapiens, UniProt P06213); test: TR-FRET kinase assay of purified hIR; type: biochemical; conditions: activated hIR 0.5 nM, 10 μM ATP, values given as pIC50 category
T1 construct: containing amino acid residues 979-1382 of human IR; made in house; host or cells: Sf9 cells (baculovirus), same process as hIGF1R

[2] = target: T2, human IGF1R (hIGF1R) (Homo sapiens, UniProt P08069); test: TR-FRET kinase assay of purified hIGF1R; type: biochemical; conditions: activated hIGF1R 0.5 nM, 10 μM ATP, values given as pIC50 category, read-out: IGF-1R pIC50 (converted)
T2 construct: containing amino acid residues 957-1367 of human IGF1R; made in house; host or cells: Sf9 cells (baculovirus)

[3] = system: Colo205; test: Inhibition of cell proliferation (CellTiter-Glo or InCell analyzer), Colo205; type: cell-based; conditions: Homo sapiens, COLO 205, 72 h / 3 days, values given as IC50 category
Method in brief: In one

T1 sequence (P06213 979-1382): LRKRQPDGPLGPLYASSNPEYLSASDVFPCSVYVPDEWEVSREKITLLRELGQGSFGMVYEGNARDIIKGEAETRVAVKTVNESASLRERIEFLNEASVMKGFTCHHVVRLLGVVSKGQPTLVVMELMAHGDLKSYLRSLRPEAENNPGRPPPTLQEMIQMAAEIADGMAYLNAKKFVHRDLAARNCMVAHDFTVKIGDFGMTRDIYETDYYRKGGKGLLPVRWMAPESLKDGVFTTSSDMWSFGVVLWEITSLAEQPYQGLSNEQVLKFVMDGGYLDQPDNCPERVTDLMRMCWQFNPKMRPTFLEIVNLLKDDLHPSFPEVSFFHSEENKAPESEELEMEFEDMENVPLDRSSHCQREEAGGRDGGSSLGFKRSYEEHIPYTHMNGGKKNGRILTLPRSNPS
T2 sequence (P08069 957-1367): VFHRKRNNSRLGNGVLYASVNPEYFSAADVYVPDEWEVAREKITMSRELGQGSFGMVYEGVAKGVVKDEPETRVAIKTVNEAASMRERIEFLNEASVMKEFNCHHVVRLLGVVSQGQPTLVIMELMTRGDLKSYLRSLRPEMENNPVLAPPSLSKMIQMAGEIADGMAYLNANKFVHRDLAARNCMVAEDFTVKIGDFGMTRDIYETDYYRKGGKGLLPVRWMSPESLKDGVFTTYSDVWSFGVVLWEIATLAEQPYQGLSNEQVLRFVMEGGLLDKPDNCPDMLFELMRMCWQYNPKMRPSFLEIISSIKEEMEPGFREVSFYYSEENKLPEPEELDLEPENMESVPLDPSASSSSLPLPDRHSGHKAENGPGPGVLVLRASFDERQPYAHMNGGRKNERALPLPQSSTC

Structure (SMILES)	pIC50 [1]	IC50 [2] [nM]	pIC50 [3]
COc1cc2c(cc1Nc1nc(Nc3cccc(F)c3C(N)=O)c3cc[nH]c3n1)CN(C(=O)CN(C)C)CC2 [Example 123, 2-[(2-{[2-(N,N-dimethylglycyl)-6-(methyloxy)-1,2,3,4-tetrahydro-7-isoquinolinyl]amino}-1H-pyrrolo[2,3-d]pyrimidin-4-yl)amino]-6-fluorobenzamide]	8.40 to 8.90	1.26 to 3.98	6.00 to 6.60
COc1cc(N2CCN(C(C)C)CC2)ccc1Nc1nc(Nc2cc(F)cc(OC)c2C(N)=O)c2cc[nH]c2n1 [Example 88]	8.40 to 8.90	1.26 to 3.98	6.00 to 6.60
CNC(=O)c1c(F)cccc1Nc1nc(Nc2cc3c(cc2OC)N(C(=O)CN(C)C)CC3)nc2[nH]ccc12 [Example 198, 2-[(2-{[1-(N,N-dimethylglycyl)-6-(methyloxy)-2,3-dihydro-1H-indol-5-yl]amino}-1H-pyrrolo[2,3-d]pyrimidin-4-yl)amino]-6-fluoro-N-methylbenzamide]	8.40 to 8.90	1.26 to 3.98	> 6.60
COc1cc(N2CCC(O)CC2)ccc1Nc1nc(Nc2cc(F)c(F)cc2C(N)=O)c2cc[nH]c2n1 [Example 99]	9.00 to 9.60	0.251 to 1	6.00 to 6.60
COc1cc(N2CCC(N3CCOCC3)CC2)ccc1Nc1nc(Nc2cc(F)c(F)cc2C(N)=O)c2cc[nH]c2n1 [Example 101, 4,5-difluoro-2-{[2-({2-(methyloxy)-4-[4-(4-morpholinyl)-1-piperidinyl]phenyl}amino)-1H-pyrrolo[2,3-d]pyrimidin-4-yl]amino}benzamide]	9.00 to 9.60	0.251 to 1	6.00 to 6.60
COc1cc(C2=CCN(C(C)C)CC2)ccc1Nc1nc(Nc2cc(F)ccc2C(N)=O)c2cc[nH]c2n1 [Example 72, 4-fluoro-2-[(2-{[4-[1-(1-methylethyl)-1,2,3,6-tetrahydro-4-pyridinyl]-2-(methyloxy)phenyl]amino}-1H-pyrrolo[2,3-d]pyrimidin-4-yl)amino]benzamide]	9.00 to 9.60	0.251 to 1	6.00 to 6.60
CCN(C)CC(=O)N1CCc2cc(OC)c(Nc3nc(Nc4cccc(F)c4C(N)=O)c4cc[nH]c4n3)cc21 [Example 166, 2-[(2-{[1-(N-ethyl-N-methylglycyl)-5-(methyloxy)-2,3-dihydro-1H-indol-6-yl]amino}-1H-pyrrolo[2,3-d]pyrimidin-4-yl)amino]-6-fluorobenzamide]	8.40 to 8.90	1.26 to 3.98	6.00 to 6.60
COc1cc(N2CCC(N3CCN(CCS(C)(=O)=O)CC3)CC2)ccc1Nc1nc(Nc2cccc(F)c2C(N)=O)c2cc[nH]c2n1 [Example 115, 2-fluoro-6-[(2-{[2-(methyloxy)-4-(4-{4-[2-(methylsulfonyl)ethyl]-1-piperazinyl}-1-piperidinyl)phenyl]amino}-1H-pyrrolo[2,3-d]pyrimidin-4-yl)amino]benzamide]	8.40 to 8.90	1.26 to 3.98	> 6.60
COc1cc(N2CCN(C(C)C)CC2)ccc1Nc1nc(Nc2ccc(F)c(F)c2C(N)=O)c2cc[nH]c2n1 [Example 94, 2,3-difluoro-6-[(2-{[4-[4-(1-methylethyl)-1-piperazinyl]-2-(methyloxy)phenyl]amino}-1H-pyrrolo[2,3-d]pyrimidin-4-yl)amino]benzamide]	8.40 to 8.90	1.26 to 3.98	> 6.60
COc1cc2c(cc1Nc1nc(Nc3cccc(F)c3C(N)=O)c3cc[nH]c3n1)N(C(=O)CN)CC2 [Example 141, 2-fluoro-6-[(2-{[1-glycyl-5-(methyloxy)-2,3-dihydro-1H-indol-6-yl]amino}-1H-pyrrolo[2,3-d]pyrimidin-4-yl)amino]benzamide]	8.40 to 8.90	1.26 to 3.98	6.00 to 6.60
CCN(CC)CC(=O)N1CCc2cc(OC)c(Nc3nc(Nc4cccc(F)c4C(N)=O)c4cc[nH]c4n3)cc21 [Example 136, 2-[(2-{[1-(N,N-diethylglycyl)-5-(methyloxy)-2,3-dihydro-1H-indol-6-yl]amino}-1H-pyrrolo[2,3-d]pyrimidin-4-yl)amino]-6-fluorobenzamide]	8.40 to 8.90	1.26 to 3.98	6.00 to 6.60
COc1cc(N2CCOC[C@@H]2C)ccc1Nc1nc(Nc2ccc(F)cc2C(N)=O)c2cc[nH]c2n1 [Example 61, 5-fluoro-2-[(2-{[4-[(3S)-3-methyl-4-morpholinyl]-2-(methyloxy)phenyl]amino}-1H-pyrrolo[2,3-d]pyrimidin-4-yl)amino]benzamide]	9.00 to 9.60	1.26 to 3.98	> 6.60
COc1cc(N2CCOCC2)ccc1Nc1nc(Nc2cc(F)c(F)cc2C(N)=O)c2cc[nH]c2n1 [Example 104, 4,5-difluoro-2-[(2-{[2-(methyloxy)-4-(4-morpholinyl)phenyl]amino}-1H-pyrrolo[2,3-d]pyrimidin-4-yl)amino]benzamide]	9.00 to 9.60	0.251 to 1	< 6.00
COc1cc2c(cc1Nc1nc(Nc3cccc(F)c3C(N)=O)c3cc[nH]c3n1)CN(CCF)CC2 [Example 233, 2-fluoro-6-[(2-{[2-(2-fluoroethyl)-6-(methyloxy)-1,2,3,4-tetrahydro-7-isoquinolinyl]amino}-1H-pyrrolo[2,3-d]pyrimidin-4-yl)amino]benzamide]	8.40 to 8.90	1.26 to 3.98	6.00 to 6.60
COc1cc(N2CCC(N3CCCCC3)CC2)ccc1Nc1nc(Nc2cc(F)c(F)cc2C(N)=O)c2cc[nH]c2n1 [Example 100, 2-[(2-{[4-(1,4′-bipiperidin-1′-yl)-2-(methyloxy)phenyl]amino}-1H-pyrrolo[2,3-d]pyrimidin-4-yl)amino]-4,5-difluorobenzamide]	9.00 to 9.60	0.251 to 1	> 6.60
CNC(=O)c1c(F)cccc1Nc1nc(Nc2cc3c(cc2OC)CCN3C(=O)CN(C)C)nc2[nH]cc(F)c12 [Example 253, 2-[(2-{[1-(N,N-dimethylglycyl)-5-(methyloxy)-2,3-dihydro-1H-indol-6-yl]amino}-5-fluoro-1H-pyrrolo[2,3-d]pyrimidin-4-yl)amino]-6-fluoro-N-methylbenzamide]	8.40 to 8.90	1.26 to 3.98	6.00 to 6.60
CNCC(=O)N1CCc2cc(OC)c(Nc3nc(Nc4cccc(F)c4C(N)=O)c4cc[nH]c4n3)cc21 [Example 142, 2-fluoro-6-[(2-{[1-(N-methylglycyl)-5-(methyloxy)-2,3-dihydro-1H-indol-6-yl]amino}-1H-pyrrolo[2,3-d]pyrimidin-4-yl)amino]benzamide]	8.40 to 8.90	1.26 to 3.98	6.00 to 6.60
COc1cc2c(cc1Nc1nc(Nc3cccc(F)c3C(=O)NCC(C)C)c3cc[nH]c3n1)N(C(=O)CN(C)C)CC2 [Example 157, 2-[(2-{[1-(N,N-dimethylglycyl)-5-(methyloxy)-2,3-dihydro-1H-indol-6-yl]amino}-1H-pyrrolo[2,3-d]pyrimidin-4-yl)amino]-6-fluoro-N-(2-methylpropyl)benzamide]	8.40 to 8.90	1.26 to 3.98	< 6.00
COc1ccc(N2CCN(C)CC2)cc1Nc1nc(Nc2ccccc2C(N)=O)c2cc[nH]c2n1 [Example 9, 2-[(2-{[2-(methyloxy)-5-(4-methyl-1-piperazinyl)phenyl]amino}-1H-pyrrolo[2,3-d]pyrimidin-4-yl)amino]benzamide]	8.40 to 8.90	1.26 to 3.98	> 6.60
CCN(CCO)CC(=O)N1CCc2cc(OC)c(Nc3nc(Nc4cccc(F)c4C(N)=O)c4cc[nH]c4n3)cc21 [Example 177, 2-[(2-{[1-[N-ethyl-N-(2-hydroxyethyl)glycyl]-5-(methyloxy)-2,3-dihydro-1H-indol-6-yl]amino}-1H-pyrrolo[2,3-d]pyrimidin-4-yl)amino]-6-fluorobenzamide]	8.40 to 8.90	1.26 to 3.98	< 6.00
CCCN(C)CC(=O)N1CCc2cc(OC)c(Nc3nc(Nc4cccc(F)c4C(=O)NC)c4cc[nH]c4n3)cc21 [Example 167, 2-fluoro-N-methyl-6-[(2-{[5-(methyloxy)-1-(N-methyl-N-propylglycyl)-2,3-dihydro-1H-indol-6-yl]amino}-1H-pyrrolo[2,3-d]pyrimidin-4-yl)amino]benzamide]	8.40 to 8.90	1.26 to 3.98	6.00 to 6.60
COc1cc2c(cc1Nc1nc(Nc3ccc(F)c(F)c3C(N)=O)c3cc[nH]c3n1)N(C(=O)CN(C)C)CCC2 [Example 162, 6-[(2-{[1-(N,N-dimethylglycyl)-6-(methyloxy)-1,2,3,4-tetrahydro-7-quinolinyl]amino}-1H-pyrrolo[2,3-d]pyrimidin-4-yl)amino]-2,3-difluorobenzamide]	9.00 to 9.60	1.26 to 3.98	> 6.60
CN(C)CC(=O)Nc1ccc(Cl)c(Nc2nc(Nc3ccccc3C(N)=O)c3cc[nH]c3n2)c1 [Example 18, 2-{[2-({2-chloro-5-[(N,N-dimethylglycyl)amino]phenyl}amino)-1H-pyrrolo[2,3-d]pyrimidin-4-yl]amino}benzamide]	9.00 to 9.60	0.251 to 1	> 6.60
CCCN1CCC=C(c2ccc(Nc3nc(Nc4cc(F)ccc4C(N)=O)c4cc[nH]c4n3)c(OC)c2)C1 [Example 70, 4-fluoro-2-[(2-{[2-(methyloxy)-4-(1-propyl-1,2,5,6-tetrahydro-3-pyridinyl)phenyl]amino}-1H-pyrrolo[2,3-d]pyrimidin-4-yl)amino]benzamide]	9.00 to 9.60	0.251 to 1	> 6.60
COc1cc(N2CCCN(C)CC2)ccc1Nc1nc(Nc2cccc(F)c2C(N)=O)c2cc[nH]c2n1 [Example 209, 2-fluoro-6-[(2-{[4-(4-methylhexahydro-1H-1,4-diazepin-1-yl)-2-(methyloxy)phenyl]amino}-1H-pyrrolo[2,3-d]pyrimidin-4-yl)amino]benzamide]	8.40 to 8.90	1.26 to 3.98	> 6.60
